# In patent US9708314B2, “Heterocyclic amide compound” (NISSAN CHEMICAL INDUSTRIES, LTD., priority 2013, dated 2017):
# Tests used:
# Assay type in all cases: in vivo
# [1] = tested on: Zea mays; assay: Test Example 4: effect on crop by application to foliage (diluvial soil, plastic box); details: Application herbicide amount 320 g/ha; foliage application
# How it was run: (§1)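 Seeds sown in sterilized diluvial soil, covered ~1.5 cm, grown 14 days in greenhouse at 25° C. to 30° C. Emulsion formulation diluted in water to set rate (g/ha) and sprayed onto stems and leaves. Effect scored visually 3 weeks later on 0–5 scale (5 = ≥90% herbicidal ratio, 0 = ≤5%).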
# [2] = tested on: directly sowed Oryza sativa; assay: as above; details: Application herbicide amount 320 g/ha; foliage application
# How it was run: as §1
# [3] = tested on: Beta vulgaris ssp. vulgaris; assay: as above; details: Application herbicide amount 320 g/ha; foliage application
# How it was run: as §1
# [4] = tested on: Brassica campestris L.; assay: as above; details: Application herbicide amount 320 g/ha; foliage application
# How it was run: as §1
# [5] = tested on: Glycine max; assay: as above; details: Application herbicide amount 320 g/ha; foliage application
# How it was run: as §1
# [6] = tested on: Triticum aestivum; assay: as above; details: Application herbicide amount 320 g/ha; foliage application
# How it was run: as §1
# [7] = tested on: Alopecurus myosuroides; assay: Test Example 4: herbicidal effect by application to foliage (diluvial soil, plastic box); details: Application herbicide amount 320 g/ha; foliage application
# How it was run: as §1
# [8] = tested on: Setaria viridis; assay: as above; details: Application herbicide amount 320 g/ha; foliage application
# How it was run: as §1
# [9] = tested on: Avena fatua; assay: as above; details: Application herbicide amount 320 g/ha; foliage application
# How it was run: as §1
# [10] = tested on: Veronica persica; assay: as above; details: Application herbicide amount 320 g/ha; foliage application
# How it was run: as §1
# [11] = tested on: Amaranthus retroflexus; assay: as above; details: Application herbicide amount 320 g/ha; foliage application
# How it was run: as §1
# [12] = tested on: Digitaria ciliaris; assay: as above; details: Application herbicide amount 320 g/ha; foliage application
# How it was run: as §1
# [13] = tested on: Galium spurium; assay: as above; details: Application herbicide amount 320 g/ha; foliage application
# How it was run: as §1
# [14] = tested on: Chenopodium album; assay: as above; details: Application herbicide amount 320 g/ha; foliage application
# How it was run: as §1
# [15] = tested on: Echinochloa crus-galli var. crus-galli; assay: as above; details: Application herbicide amount 320 g/ha; foliage application
# How it was run: as §1
# [16] = tested on: Lolium multiflorum Lam.; assay: as above; details: Application herbicide amount 320 g/ha; foliage application
# How it was run: as §1
# [17] = tested on: Stellaria media; assay: as above; details: Application herbicide amount 320 g/ha; foliage application
# How it was run: as §1
# [18] = tested on: Apera spica-venti.; assay: as above; details: Application herbicide amount 320 g/ha; foliage application
# How it was run: as §1
# [19] = tested on: Abutilon theophrasti; assay: as above; details: Application herbicide amount 320 g/ha; foliage application
# How it was run: as §1
# [20] = tested on: Echinochloa oryzacola Vasing.; assay: Test Example 1: herbicidal activity, application before weed generation in submerged conditions; details: Application herbicide amount 320 g/ha; Seventeenth Table
# How it was run: (§2)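 Pre-emergence water-surface application under 4 cm flooding, same day as sowing, with rice transplanted at 2.5 leaf stage. Dose given as g/ha. Plants grown at 25° C. to 30° C. and rated three weeks later on a 0 (≤5%) to 5 (≥90%) herbicidal-ratio scale.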
# [21] = tested on: Monochoria vaginalis; assay: as above; details: Application herbicide amount 320 g/ha; Seventeenth Table
# How it was run: as §2
# [22] = tested on: Scirpus juncoides; assay: as above; details: Application herbicide amount 320 g/ha; Seventeenth Table
# How it was run: as §2
# [23] = tested on: transplanted Oryza sativa; assay: Test Example 1: effect on crop, application before weed generation in submerged conditions; details: Application herbicide amount 320 g/ha; Seventeenth Table
# How it was run: as §2
SMILES,c (Zea mays) effect on crop grade [1],b (directly sowed Oryza sativa) effect on crop grade [2],f (Beta vulgaris ssp. vulgaris) effect on crop grade [3],g (Brassica campestris L.) effect on crop grade [4],d (Glycine max) effect on crop grade [5],e (Triticum aestivum) effect on crop grade [6],J (Alopecurus myosuroides) herbicidal effect grade [7],G (Setaria viridis) herbicidal effect grade [8],I (Avena fatua) herbicidal effect grade [9],R (Veronica persica) herbicidal effect grade [10],N (Amaranthus retroflexus) herbicidal effect grade [11],F (Digitaria ciliaris) herbicidal effect grade [12],Q (Galium spurium) herbicidal effect grade [13],O (Chenopodium album) herbicidal effect grade [14],H (Echinochloa crus-galli var. crus-galli) herbicidal effect grade [15],K (Lolium multiflorum Lam.) herbicidal effect grade [16],P (Stellaria media) herbicidal effect grade [17],L (Apera spica-venti.) herbicidal effect grade [18],M (Abutilon theophrasti) herbicidal effect grade [19],A: Echinochloa oryzicola Vasing. (herbicidal effect grade) [20],further results
Cc1nnc(NC(=O)c2ccc(C(F)(F)F)n3c(N4CCS(=O)(=O)CC4)nnc23)o1 [1-120],0 (Herbicidal ratio of 5% or less (almost no effect)),2 (Herbicidal ratio of 20% or more and less than 40%),5 (Herbicidal ratio of 90% or more (almost completely withered)),5 (Herbicidal ratio of 90% or more (almost completely withered)),4 (Herbicidal ratio of 70% or more and less than 90%),3 (Herbicidal ratio of 40% or more and less than 70%),3 (Herbicidal ratio of 40% or more and less than 70%),5 (Herbicidal ratio of 90% or more (almost completely withered)),3 (Herbicidal ratio of 40% or more and less than 70%),5 (Herbicidal ratio of 90% or more (almost completely withered)),5 (Herbicidal ratio of 90% or more (almost completely withered)),5 (Herbicidal ratio of 90% or more (almost completely withered)),5 (Herbicidal ratio of 90% or more (almost completely withered)),5 (Herbicidal ratio of 90% or more (almost completely withered)),5 (Herbicidal ratio of 90% or more (almost completely withered)),3 (Herbicidal ratio of 40% or more and less than 70%),5 (Herbicidal ratio of 90% or more (almost completely withered)),5 (Herbicidal ratio of 90% or more (almost completely withered)),4 (Herbicidal ratio of 70% or more and less than 90%),5 (Herbicidal ratio of 90% or more (almost completely withered)),C: Monochoria vaginalis (herbicidal effect grade) [21]: 1 (Herbicidal ratio of 5% or more and less than 20%); B: Scirpus juncoides (herbicidal effect grade) [22]: 3 (Herbicidal ratio of 40% or more and less than 70%); a: transplanted Oryza sativa (effect on crop grade) [23]: 3 (Herbicidal ratio of 40% or more and less than 70%)
COCCN(C)c1nnc2c(C(=O)Nc3nnco3)ccc(C(F)(F)F)n12 [1-121],2 (Herbicidal ratio of 20% or more and less than 40%),2 (Herbicidal ratio of 20% or more and less than 40%),5 (Herbicidal ratio of 90% or more (almost completely withered)),5 (Herbicidal ratio of 90% or more (almost completely withered)),4 (Herbicidal ratio of 70% or more and less than 90%),3 (Herbicidal ratio of 40% or more and less than 70%),3 (Herbicidal ratio of 40% or more and less than 70%),4 (Herbicidal ratio of 70% or more and less than 90%),3 (Herbicidal ratio of 40% or more and less than 70%),5 (Herbicidal ratio of 90% or more (almost completely withered)),5 (Herbicidal ratio of 90% or more (almost completely withered)),5 (Herbicidal ratio of 90% or more (almost completely withered)),3 (Herbicidal ratio of 40% or more and less than 70%),5 (Herbicidal ratio of 90% or more (almost completely withered)),5 (Herbicidal ratio of 90% or more (almost completely withered)),3 (Herbicidal ratio of 40% or more and less than 70%),5 (Herbicidal ratio of 90% or more (almost completely withered)),3 (Herbicidal ratio of 40% or more and less than 70%),4 (Herbicidal ratio of 70% or more and less than 90%),5 (Herbicidal ratio of 90% or more (almost completely withered)),C: Monochoria vaginalis (herbicidal effect grade) [21]: 4 (Herbicidal ratio of 70% or more and less than 90%); B: Scirpus juncoides (herbicidal effect grade) [22]: 4 (Herbicidal ratio of 70% or more and less than 90%); a: transplanted Oryza sativa (effect on crop grade) [23]: 3 (Herbicidal ratio of 40% or more and less than 70%)
O=C(Nc1nnco1)c1ccc(C(F)(F)F)n2c(C3CC3)nnc12 [1-144],0 (Herbicidal ratio of 5% or less (almost no effect)),0 (Herbicidal ratio of 5% or less (almost no effect)),5 (Herbicidal ratio of 90% or more (almost completely withered)),4 (Herbicidal ratio of 70% or more and less than 90%),4 (Herbicidal ratio of 70% or more and less than 90%),1 (Herbicidal ratio of 5% or more and less than 20%),1 (Herbicidal ratio of 5% or more and less than 20%),2 (Herbicidal ratio of 20% or more and less than 40%),2 (Herbicidal ratio of 20% or more and less than 40%),4 (Herbicidal ratio of 70% or more and less than 90%),4 (Herbicidal ratio of 70% or more and less than 90%),3 (Herbicidal ratio of 40% or more and less than 70%),3 (Herbicidal ratio of 40% or more and less than 70%),5 (Herbicidal ratio of 90% or more (almost completely withered)),5 (Herbicidal ratio of 90% or more (almost completely withered)),1 (Herbicidal ratio of 5% or more and less than 20%),5 (Herbicidal ratio of 90% or more (almost completely withered)),0 (Herbicidal ratio of 5% or less (almost no effect)),2 (Herbicidal ratio of 20% or more and less than 40%),5 (Herbicidal ratio of 90% or more (almost completely withered)),C: Monochoria vaginalis (herbicidal effect grade) [21]: 3 (Herbicidal ratio of 40% or more and less than 70%); B: Scirpus juncoides (herbicidal effect grade) [22]: 3 (Herbicidal ratio of 40% or more and less than 70%); a: transplanted Oryza sativa (effect on crop grade) [23]: 1 (Herbicidal ratio of 5% or more and less than 20%)
